Earlier results as cited in patent US11944640B2, “Zinc-[gamma]-PGA compositions and methods for treating cancer” (XYLONIX PTE. LTD., priority 2016, dated 2024).

Tests used:
[1] = system: folate receptor (FR), FR-α and FR-β; conditions: FR-α vs FR-β
[2] = system: androgen-dependent LNCaP and androgen-independent PC3, DU145 prostate cancer cell lines; conditions: micromolar concentrations (1-10 μM)
rats = conditions: 9˜14 days of dietary administration (240 ppm)
[3] = system: leukocyte-originating cells, including murine thymocytes, murine splenic lymphocytes, human Ramos B, and human Jurkat T cells; conditions: nanomolar concentrations

## CN(CC1CNc2nc(N)[nH]c(=O)c2N1C)c1ccc(C(=O)N[C@@H](CCC(=O)O)C(=O)O)cc1 (stereo partly shown) [DMTHF, N^5,N^10-dimethyl tetrahydrofolate]
[1]
  affinity for folate receptor isoforms (selectivity): higher affinity for FR-α over FR-β

## zinc pyrithione
[2]
  mode of cell death: elicited ATP-depletion and, eventually, ERK and PKC-dependent necrosis
rats
  toxicity: acute neurological toxicity
[3]
  mode of cell death: induced zinc-specific apoptosis
